Tested on: CN0375-F725-PDC multi-cell spheroids, viability
Experiment: Anticancer human tumor CN0375-F725-PDC patient-derived colon carcinoma cell line growth inhibition [TAK]
Details: for IC50: curve of first compound; for viability, T/C: stronger effect = lower value
Summary of the method: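 Tumor cells were grown as spheroids with HUVEC and hMSC (60:25:15) and treated with targeted agents combined with TAK-243 or ipatasertib. Drugs were tested in half-log steps down from near the clinical Cmax, or from 10 microM where Cmax was unknown.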

[1] = second compound 0.3 µM, first compound 0.0316 µM
[2] = second compound 0.3 µM, first compound 0.1 µM
[3] = second compound 0.3 µM, first compound 0.316 µM
[4] = second compound 0.3 µM, first compound 1 µM
[5] = second compound 0.949 µM, first compound 0.0316 µM
[6] = second compound 0.949 µM, first compound 0.1 µM
[7] = second compound 0.949 µM, first compound 0.316 µM
[8] = second compound 0.949 µM, first compound 1 µM
[9] = second compound 3 µM, first compound 0.0316 µM
[10] = second compound 3 µM, first compound 0.1 µM
[11] = second compound 3 µM, first compound 0.316 µM
[12] = second compound 3 µM, first compound 1 µM
[13] = second compound 9.49 µM, first compound 0.0316 µM
[14] = second compound 9.49 µM, first compound 0.1 µM
[15] = second compound 9.49 µM, first compound 0.316 µM
[16] = second compound 9.49 µM, first compound 1 µM
[17] = second compound 30 µM, first compound 0.0316 µM
[18] = second compound 30 µM, first compound 0.1 µM
[19] = second compound 30 µM, first compound 0.316 µM
[20] = second compound 30 µM, first compound 1 µM
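Also: spheroids exposed to drugs for seven days.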
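For viability, T/C in this document: 100% = DMSO vehicle control wells.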

Row | Compound | IC50 (second compound 0.3 µM) | IC50 (second compound 0.949 µM) | IC50 (second compound 3 µM) | IC50 (second compound 9.49 µM) | IC50 (second compound 30 µM) | viability, T/C [1] | viability, T/C [2] | viability, T/C [3] | viability, T/C [4] | viability, T/C [5] | viability, T/C [6] | viability, T/C [7] | viability, T/C [8] | viability, T/C [9] | viability, T/C [10] | viability, T/C [11] | viability, T/C [12] | viability, T/C [13] | viability, T/C [14] | viability, T/C [15] | other results
1 | COc1c(OCCCN2CCOCC2)ccc2c3n(c(=NC(=O)c4cnc(N)nc4)nc12)CCN3 + CC(C)NCC(C(=O)N1CCN(c2ncnc3c2C(C)CC3O)CC1)c1ccc(Cl)cc1 | 247 nM | 211 nM | 206 nM | 154 nM | 84.3 nM | 81.1% | 61.7% | 45.6% | 34.7% | 80.1% | 61.3% | 42.7% | 37.6% | 78.5% | 60.4% | 41.9% | 33% | 69.9% | 55.5% | 40.4% | viability, T/C (second compound 0.3 µM, first compound 0.00316 µM): 103%; viability, T/C (second compound 0.3 µM, first compound 0.01 µM): 88.3%; viability, T/C (second compound 0.949 µM, first compound 0.00316 µM): 100%; viability, T/C (second compound 0.949 µM, first compound 0.01 µM): 91.8%; viability, T/C (second compound 3 µM, first compound 0.00316 µM): 98.8%; viability, T/C (second compound 3 µM, first compound 0.01 µM): 83.1%; viability, T/C (second compound 9.49 µM, first compound 0.00316 µM): 92.7%; viability, T/C (second compound 9.49 µM, first compound 0.01 µM): 80.2%; viability, T/C [16]: 34.8%; viability, T/C (second compound 30 µM, first compound 0.00316 µM): 76.2%; viability, T/C (second compound 30 µM, first compound 0.01 µM): 70.5%; viability, T/C [17]: 62%; viability, T/C [18]: 47.8%; viability, T/C [19]: 37.5%; viability, T/C [20]: 32.6%
2 | Cc1nc(NC(=O)N2CCCC2C(N)=O)sc1-c1ccnc(C(C)(C)C(F)(F)F)c1 (stereo not given) + CC(C)NCC(C(=O)N1CCN(c2ncnc3c2C(C)CC3O)CC1)c1ccc(Cl)cc1 | > 10000 nM | > 10000 nM | > 10000 nM | 9460 nM | 4990 nM | 102% | 95.6% | 89.5% | 82.1% | 101% | 97.7% | 94.4% | 88.7% | 98.6% | 98.4% | 86.7% | 81.8% | 89.4% | 94.5% | 88.1% | viability, T/C (second compound 0.3 µM, first compound 3.16 µM): 74.4%; viability, T/C (second compound 0.3 µM, first compound 10 µM): 52.5%; viability, T/C (second compound 0.949 µM, first compound 3.16 µM): 74.3%; viability, T/C (second compound 0.949 µM, first compound 10 µM): 57.9%; viability, T/C (second compound 3 µM, first compound 3.16 µM): 71.7%; viability, T/C (second compound 3 µM, first compound 10 µM): 51.6%; viability, T/C [16]: 79.5%; viability, T/C (second compound 9.49 µM, first compound 3.16 µM): 66.7%; viability, T/C (second compound 9.49 µM, first compound 10 µM): 49%; viability, T/C [17]: 80%; viability, T/C [18]: 82%; viability, T/C [19]: 71.7%; viability, T/C [20]: 67.4%; viability, T/C (second compound 30 µM, first compound 3.16 µM): 59.9%; viability, T/C (second compound 30 µM, first compound 10 µM): 37.9%

From PubChem BioAssay AID2060346 (Molecular Pharmacology Branch, DTP, NCI, 2025)
